Data as given in ChEMBL document CHEMBL1201862, “PubChem BioAssay data set” (2004).
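Grown in 96-well plates, cells were treated for 48 hours with each compound at five concentrations. Insufficient inhibition: endpoint recorded as highest concentration tested. GI50: concentration for 50% inhibition of growth.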 The source made the active and inactive calls. No stated cut-off is given here; in the data, active = GI50 up to about 1.1 µM and inactive = higher.

What was measured:
Assay in all cases: DTP human tumour cell line panel, 48 h
SNB-78 = system: SNB-78
DMS-114 = system: DMS-114
DMS-273 = system: DMS-273
M19-MEL = system: M19-MEL
KM-20L2 = system: KM-20L2
LXFL 529 = system: LXFL 529
XF498 = system: XF498
HOP-18 = system: HOP-18
RXF 631 = system: RXF 631

Measured: GI50

O=C(O)CSc1nnc(COc2ccccc2)n1-c1ccccc1
inactive: SNB-78 > 100 µM | DMS-114 > 100 µM | DMS-273 > 100 µM | M19-MEL > 100 µM | KM-20L2 > 100 µM | LXFL 529 > 100 µM

CN1C(=O)CC(CC(=O)C2CCCCC2=O)CC1=O (stereo not given)
inactive: SNB-78 > 100 µM | XF498 > 100 µM | DMS-114 > 100 µM | DMS-273 > 100 µM | HOP-18 > 100 µM | M19-MEL > 100 µM | KM-20L2 > 100 µM | LXFL 529 > 100 µM

C=C1C(=O)O[C@@H]2C[C@@H](C)[C@@H]3C=CC(=O)[C@@]3(C)[C@@H](OC(=O)CC(=O)O[C@H]3[C@@H]4C(=C)C(=O)O[C@@H]4C[C@@H](C)[C@@H]4C=CC(=O)[C@]43C)[C@H]12
active: SNB-78 0.0153 µM | XF498 0.0213 µM | DMS-114 0.0312 µM | DMS-273 0.0336 µM | RXF 631 0.0989 µM | HOP-18 0.11 µM | M19-MEL 0.0141 µM | KM-20L2 0.0771 µM | LXFL 529 < 0.0117 µM

Cc1ccc(NC(=O)CC2SC(=N)NC2=O)cc1C (stereo not given)
inactive: SNB-78 > 100 µM | XF498 > 100 µM | RXF 631 > 100 µM | KM-20L2 > 100 µM | LXFL 529 > 100 µM

CCOC(=O)c1oc2ccc([N+](=O)[O-])c3c2c1CCC3
inactive: SNB-78 34.8 µM | XF498 20.7 µM | DMS-114 36.9 µM | DMS-273 58.3 µM | RXF 631 37.2 µM | HOP-18 6.55 µM | M19-MEL > 100 µM | KM-20L2 > 100 µM | LXFL 529 > 100 µM

CN(C)/C=N/c1nc2ncn(CCOC(=O)c3ccccc3)c2c(=O)[nH]1
inactive: SNB-78 > 100 µM | DMS-114 > 100 µM | DMS-273 > 100 µM | RXF 631 > 100 µM | HOP-18 > 100 µM | M19-MEL > 100 µM | KM-20L2 > 100 µM | LXFL 529 > 100 µM

Brc1ccc(N2C[N+](c3ccc(Br)cc3)=NC(c3ccccc3)=N2)cc1
inactive: SNB-78 31.2 µM | XF498 20.6 µM | DMS-114 19.5 µM | DMS-273 8.65 µM | HOP-18 14.8 µM | M19-MEL 14.3 µM | KM-20L2 18.2 µM | LXFL 529 11.1 µM

COc1ccc(C2c3cc(OC)c(OC)cc3C(Cc3ccc([N+](=O)[O-])cc3)C2c2ccc([N+](=O)[O-])cc2)cc1OC (stereo not given)
inactive: SNB-78 > 100 µM | XF498 48.9 µM | DMS-114 > 100 µM | DMS-273 > 100 µM | RXF 631 > 100 µM | M19-MEL > 100 µM | KM-20L2 > 100 µM | LXFL 529 > 100 µM

N#CC(C#N)=c1[nH]c2cccc3c2-c2c(cccc2c3=C(C#N)C#N)[nH]1
inactive: SNB-78 57.4 µM | XF498 > 100 µM | DMS-114 > 100 µM | DMS-273 > 100 µM | HOP-18 > 100 µM | KM-20L2 > 100 µM | LXFL 529 > 100 µM

Cc1nnc(N/N=C2/C(=O)Nc3c(Cl)cc(Cl)cc32)n1N
inactive: SNB-78 > 100 µM | HOP-18 73.1 µM | M19-MEL > 100 µM | KM-20L2 > 100 µM | LXFL 529 > 100 µM

CN1Cc2c(nc(-c3ccc(Br)cc3)c[n+]2[O-])N(C)C1
inactive: SNB-78 > 100 µM | XF498 > 100 µM | DMS-114 > 100 µM | DMS-273 > 100 µM | HOP-18 > 100 µM | KM-20L2 > 100 µM | LXFL 529 > 100 µM

COC(CN1C(=O)c2cccc3cccc(c23)C1=O)OC
inactive: SNB-78 > 100 µM | XF498 23.1 µM | DMS-114 78 µM | DMS-273 48.9 µM | HOP-18 > 100 µM | M19-MEL > 100 µM | KM-20L2 > 100 µM | LXFL 529 62.7 µM

CC(=O)OCC1OC(N2C(=O)[C@@H](Oc3ccccc3)[C@H]2/C=C/c2ccccc2)C(OC(C)=O)C(OC(C)=O)C1OC(C)=O (stereo not given in full)
inactive: SNB-78 > 100 µM | XF498 > 100 µM | DMS-114 > 100 µM | DMS-273 > 100 µM | M19-MEL > 100 µM | KM-20L2 > 100 µM | LXFL 529 > 100 µM

O=C(c1ccc(Cl)cc1Cl)C1[C@H]2C(=O)N(c3ccc(Cc4ccc(N5C(=O)[C@@H]6ON(c7ccccc7)C(C(=O)c7ccc(Cl)cc7Cl)[C@@H]6C5=O)cc4)cc3)C(=O)[C@H]2ON1c1ccccc1 (stereo not given in full)
inactive: SNB-78 > 50 µM | DMS-114 > 50 µM | DMS-273 > 50 µM | RXF 631 > 50 µM | HOP-18 > 50 µM | M19-MEL > 50 µM | KM-20L2 > 50 µM | LXFL 529 > 50 µM

CC(=O)NC(C=O)C(O[C@H](C)C(=O)NC(C)C(=O)NC(CCC(N)=O)C(=O)OCc1ccccc1)C(O)C(O)COC(=O)CCNc1c2ccccc2nc2cccc([N+](=O)[O-])c12 (stereo not given in full)
inactive: SNB-78 2.58 µM | XF498 1.83 µM | DMS-114 2.81 µM | DMS-273 2.69 µM | HOP-18 4.3 µM | M19-MEL 1.66 µM | KM-20L2 2 µM | LXFL 529 1.79 µM

COc1ccc(CCC2c3cc(OC)c(OC)cc3CCN2C)cc1OC (stereo not given)
inactive: SNB-78 > 100 µM | DMS-114 > 100 µM | HOP-18 > 100 µM | M19-MEL > 100 µM | KM-20L2 > 100 µM | LXFL 529 > 100 µM

CC1C=C(CCCCCCCCCCCC[C@@H](O)[C@@H]2CC[C@@H]([C@@H]3CC[C@@H](C(O)CCCCCCCCCCCCC4=C[C@H](C)OC4=O)O3)O2)C(=O)O1 (stereo not given in full)
inactive: XF498 17.9 µM | DMS-273 > 41 µM | HOP-18 > 100 µM | M19-MEL 31.2 µM | KM-20L2 > 95.5 µM | LXFL 529 17.1 µM
active: DMS-114 0.0697 µM

COC(=O)CC1C[C@H](C#N)N(C(=O)c2ccccc2)C[C@@H]1CC[N+](=O)[O-] (stereo not given in full)
inactive: SNB-78 > 100 µM | XF498 > 100 µM | DMS-273 > 100 µM | HOP-18 > 100 µM | M19-MEL > 100 µM | KM-20L2 > 100 µM | LXFL 529 > 100 µM

CCN(CC)C(=S)S [DITIOCARB SODIUM]
active: XF498 0.221 µM | DMS-114 0.0968 µM | M19-MEL 0.439 µM
inactive: SNB-78 > 100 µM | RXF 631 3.27 µM | HOP-18 > 100 µM | KM-20L2 69 µM | LXFL 529 > 100 µM

COCC(O)Cn1ccnc1[N+](=O)[O-] (stereo not given) [MISONIDAZOLE]
inactive: SNB-78 > 100 µM | XF498 > 100 µM | DMS-114 > 100 µM | DMS-273 > 100 µM | M19-MEL > 100 µM | KM-20L2 > 100 µM
